Laboratory results as given in patent US9650674B2, “Nucleic acid probes and methods of using the same” (Board of Trustees University of Arkansas, priority 2012, dated 2017).
{Cy5.5} = Cy5.5 cyanine dye label

Columns and labels:
DNase I = biological target: T1, DNase I (Homo sapiens, UniProt P24855); experiment: Kinetic fluorescence of probes exposed to DNase I in vitro; format: biochemical
T1 construct: purchased Sigma (St. Louis, Mo.)
T1 sequence (P24855 23-282): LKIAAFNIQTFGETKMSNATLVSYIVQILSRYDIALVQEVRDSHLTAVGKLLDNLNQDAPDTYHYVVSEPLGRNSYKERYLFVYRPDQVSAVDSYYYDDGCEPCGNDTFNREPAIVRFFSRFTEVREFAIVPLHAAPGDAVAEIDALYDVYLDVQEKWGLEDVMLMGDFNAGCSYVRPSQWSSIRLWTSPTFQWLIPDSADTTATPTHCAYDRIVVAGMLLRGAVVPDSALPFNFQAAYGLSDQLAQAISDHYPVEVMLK
Protocol: It was hypothesized that exposure of the probes to endonucleases would lead to DNA cleavage and dissociation of protruded strand from the hairpin (FIG. 2A). To assess which of the proposed probes is the best to measure endonuclease activity, the probes (0.5 μM) were exposed with recombinant human DNase I (1 μg/ml) and the kinetic fluorescence curves were recorded. Twenty min into the reaction, AB259.1, AB259.3 and AB259.5 gained 1.75-, 2.6- and 1.62-fold fluorescence, respectively, compared to the baseline (FIG. 2B). At 20-25 min, AB259.1 and AB259.3 reached the plateaus. […] Therefore, AB259.3 was chosen for further experiments.
To detect specificity of the assay to DNase I that is a Ca/Mg-dependent endonuclease, AB259.3 probe was tested with 1 μg/ml DNase I in the presence of Ca++ and Mg++ (EAA buffer), in absence of the cations (deionized water), or in excess of EDTA (200 μM). […] Finally, it was tested whether AB259.3 probe will detect inhibition of DNase I activity by DNase I inhibitors such as ZnCl2 and Zn-diisopropyl salicylate (Zn-DIPS).
All cell-free experiments were performed using the Bio-Tek Synergy 5 fluorescent plate reader. Before experiments, optimal excitation and emission wavelengths were determined. For this, excitation and emission were scanned in the ranges of 600-680 nm and 690-705 nm, respectively. The optimal excitation/emission was determined to be 665/703 nm. All kinetic and endpoint measurements were done in a total volume of 100 μl at 37° C. Unless stated otherwise, DNA substrate was used in final concentration 0.5 μM reconstituted in endonuclease activity assay (EAA) buffer (2 mM CaCl2, 5 mM MgCl2, 10 mM Tris-HCl, pH 7.4) in a 96-well plate. After measurement of starting fluorescence, DNase I or tested material (diluted 1:20 urine or 1:100 serum) were added to the reconstituted probe, rapidly mixed and fluorescence was monitored for up to 60 min with 30-sec intervals. In some instances, EDTA (final concentration 200 μM) or NaOH (50 mM) was added to terminate the reaction. For the experiments that involved assessment of fluorescence after DNA denaturing, probes were tested in Cepheid real-time PCR system using Cy5 setting (Sunnyvale, Calif.).

WT mice = experiment: Histological distribution of probe in kidneys; format: in vivo, mouse; details: 50 nmol/kg intravenous
Protocol: It was assessed whether AB259.3 probe is specifically accumulated in any renal compartments or its accumulation in the kidney is simply due to the excretion with urine. For this, WT mice were administered intravenously with 50 nmol/kg of AB259.3 probe and kidneys were collected in 1 or 3 hours, frozen, cryosectioned and examined under fluorescent microscope in 628/40-692/40 spectrum. […] Morphologically, fluorescence was detected mainly in membranous parts of the epithelial cells, such as basolateral and, to lesser extent, at apical surface.

WT and DNase I KO mice = experiment: Intravital imaging of endonuclease activity in kidneys
From the text: At the next step, WT and DNase I KO mice were anesthetized and intravenously administered with 50 nmol/kg of AB259.3 probe followed by intravital imaging using Xenogen-IVIS.
To additionally confirm preferential accumulation and processing of AB259.3 probe in kidneys, separate set of mice was deeply anesthetized and subjected to abdominal incision and real-time intravital visualization of left kidney while performing intravenous injection of AB259.3 probe. […] For this, DNase I KO animals were subjected to open surgery that was used to administer 5 μl DNase I (0.1 mg/ml) to subcapsular space of upper ventral zone of left kidney. To control effect of DNase I, additional WT and DNase I KO mice were injected with same volume of the vehicle. Immediately after injection, mice were injected with 50 nmol/kg of AB259.3 probe intravenously and then imaged in a Xenogen-IVIS.
Male DNase I KO mice and their WT counterparts at the age 8-10 weeks were used for all experiments. All procedures with mice were performed under general anesthesia with 50 mg/kg ketamine. For subcutaneous administration, mice were injected with 10 μl of 0.1 μM AB259.3 in the dorsal subcutaneous site. For systemic visualization, AB259.3 was injected intravenously at 50 nmol/kg in tail vein.
Imaging of live and euthanized mice or their isolated organs were performed using Xenogen IVIS Image System 200 (Caliper Life Sciences, Hopkinton, Mass.) equipped with Living Image® Software.

Substance: [Cy5.5]AACACTCCGATGAGTGTAGAATGT[Cy5.5] (DNA, 5' {Cy5.5}, 3' {Cy5.5}, backbone not given here) [AB259.3]
- dependence of kinetic reaction on DNase I concentration (DNase I; different concentrations of DNase I, FIG. 2C): linear correlation between mean velocity (Vm) of the kinetic reaction and DNase I concentration
- gain of fluorescence compared to baseline (DNase I; probe 0.5 μM, DNase I 1 μg/ml, twenty min into the reaction, FIG. 2B): 2.6 fold
- renal localisation of activated probe at 1 hour (WT mice; 1 hour): cortical compartment, and mainly proximal tubules already contained significant amount of activated AB259.3 probe
- renal localisation of activated probe at 3 hours (WT mice; 3 hours, FIG. 8): started to appear in medullar compartment and distal tubules
- time to plateau of fluorescence in kidneys, intravital imaging (WT and DNase I KO mice; 50 nmol/kg intravenous, FIGS. 7A and 7B): 10 min
- retention of fluorescence by kidneys (WT and DNase I KO mice; 50 nmol/kg intravenous, FIGS. 7C and 7D): at least 5 hours
- time to plateau of Cy5.5 fluorescence in exposed left kidney, real-time (WT and DNase I KO mice; abdominal incision, intravenous injection, FIG. 7E): 10 min
